Activity calls are given as the source filed them.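 How the source made its calls: active means IC50 at or below a set limit; inactive means the rest.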

The experiment deals with HL-1 cardiomyocytes, 2-deoxyglucose injury, ATPLite luminescence, 2 h. Put plainly: protection of HL-1 cardiomyocytes from 2-deoxyglucose injury, dose response, cell-based, ATPLite luminescence (AID 602217).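 Further: cells kept in glucose-free DMEM during the 2-deoxyglucose injury; potency of protection where actives preserve ATP signal against 2-deoxyglucose stress.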
The IC50 is the midpoint of a concentration-inhibition curve. `O=C(CCCN1C(=O)c2cccc3cccc(c23)C1=O)N1CCN(c2ccccc2O)CC1`: the IC50 was 27.4 µM (inactive).

With `COc1ccccc1NC(=O)c1cc(-c2cc(OC)c(OC)c(OC)c2)nc2ccccc12`, the 50% inhibitory concentration (IC50) was 14.3 µM.

For the compound `COc1cc(-c2cc(NC(C)=O)c3ncc(-c4cc(OC)c(OC)c(OC)c4)n3c2)cc(OC)c1OC`, the IC50 was 6.4 µM.

Turning to `Cc1cc(N)n(-c2nc(-c3cccnc3)nc3ccccc23)n1`, the IC50 is > 79 µM (inactive).

Regarding `COc1ccc(Nc2nc(C(=O)N3CCc4cc(OC)c(OC)cc4C3)cs2)cc1`, the IC50 was 42 µM (inactive).

Take `CC(=O)Nc1ccc(Nc2nc(-c3sc(NC(C)=O)nc3C)cs2)cc1`: the IC50 is 43.6 µM (inactive).

For `CC(=O)c1ccc(-c2cnc3c(NC=O)cc(-c4ccc(C(=O)NC5CC5)cc4)cn23)cc1`, the IC50 was 20 µM (inactive).

`COC(=O)c1ccc(N)c(N=CC2=C(O)CC(C)(C)CC2=O)c1`: the IC50 was > 79 µM (inactive).

As for `O=[N+]([O-])c1ccc(Nc2nc(N/N=C/c3cccc(F)c3)nc(N3CCCC3)n2)cc1`, the IC50 is > 79 µM (inactive).

As for `Cc1cccc(NC(=O)c2nc[nH]c2C(=O)NCCCCNC(=O)c2[nH]cnc2C(=O)Nc2cccc(C)c2)c1`, the IC50 was > 79 µM (inactive).

For `CCN(CC(=O)Nc1ccc(OC)cc1)C(=O)c1cc(-c2cccs2)nn1-c1ccccc1`, the IC50 was 17.6 µM.

In the case of `CC(=O)c1ccc(-c2cnc3c(NC=O)cc(-c4cccc(NS(C)(=O)=O)c4)cn23)cc1`, the IC50 was > 79 µM (inactive).

`CCOC(=O)c1c2c3c(cccc3n(C)c1=O)C(=O)c1ccccc1-2`: the IC50 is > 79 µM (inactive).

For the compound `COc1ccccc1OP(=O)(Nc1cccnc1)Oc1ccccc1OC`, the IC50 is 21.2 µM (inactive).

For `CCOc1ccccc1Nc1nnc(SCc2nnc(-c3cc(OC)c(OC)c(OC)c3)o2)s1`, the IC50 was 14.6 µM.

`CC(=O)c1ccc(-c2cnc3c(NC=O)cc(-c4cccc(C(=O)N(C)C)c4)cn23)cc1`: the IC50 is > 79 µM (inactive).

For the compound `Nc1c(C(=O)N/N=C/c2cccnc2)oc2nc(-c3ccccc3)cc(-c3ccco3)c12`, the IC50 was > 79 µM (inactive).

As to `Cc1ccc(C(C(=O)NCc2ccccc2)N(Cc2ccco2)C(=O)c2snc(C(N)=O)c2N)o1` (centres undefined), the IC50 was 23.9 µM (inactive).

Regarding `O=C(NCC(=O)N(Cc1ccccc1)C(C(=O)NC1CCCCC1)c1ccco1)c1ccco1` (centres undefined), the IC50 is > 79 µM (inactive).

Turning to `COc1cc(-c2cc(NC(C)=O)c3ncc(-c4ccc(C(C)=O)cc4)n3c2)cc(OC)c1OC`, the IC50 is > 79 µM (inactive).

For `COc1cc(-c2cc3nc(NCCc4ccc(S(N)(=O)=O)cc4)ccn3n2)cc(OC)c1OC`, the IC50 was 48.7 µM (inactive).

`NC(=O)c1nsc(C(=O)N(Cc2ccco2)C(C(=O)NCc2ccccc2)c2ccc(O)cc2)c1N` (centres undefined): the IC50 is 32.2 µM (inactive).

On to `COc1cccc(Nc2nc(-c3sc(NC(=O)c4ccco4)nc3C)cs2)c1`, for which the IC50 was 26.4 µM (inactive).

As to `CCOC(=O)C1CCN(c2cc3c(cc2NC(=O)c2ccccc2Cl)n(C)c(=O)n3C)CC1`, the IC50 is > 79 µM (inactive).

For `CCOC(=O)c1ccc(NC(=O)c2nc[nH]c2C(=O)NCCCCCNC(=O)OC(C)(C)C)cc1`, the IC50 is > 79 µM (inactive).

Regarding `CC(=O)Nc1cc(-c2ccc(C(=O)NC3CC3)cc2)cn2c(-c3cccc(C(C)=O)c3)cnc12`, the IC50 is 12.7 µM.

For `CNC(=O)c1ccc(-c2sc3nc(N4CCOCC4)c4c(c3c2N)CC(C)(C)OC4)o1`, the IC50 is 46.1 µM (inactive).

Turning to `O=CNc1cc(-c2ccc(C(=O)NC3CC3)cc2)cn2c(-c3ccccc3)cnc12`, the IC50 is 40.9 µM (inactive).

For the compound `CC1Nc2ncnc(N3CCN(c4ccccc4)CC3)c2N(Cc2ccc(Cl)cc2)C1=O` (centres undefined), the IC50 was 1.95 µM.

Regarding `COc1cccc(Nc2nc3ccccc3n3cnnc23)c1`, the IC50 was > 79 µM (inactive).

For `CCOC(=O)c1c(C)[nH]c(C)c1C(=O)COc1ncnc2cc([N+](=O)[O-])ccc12`, the IC50 is > 79 µM (inactive).

In the case of `CCOc1cc(/C=C/c2ccc3cccc([N+](=O)[O-])c3n2)ccc1OCC(=O)N(C)C`, the IC50 is 40.3 µM (inactive).

Regarding `COc1ccc(-c2cc(C(=O)N(C)Cc3nc4ccccc4c(=O)[nH]3)c3ccccc3n2)cc1OC`, the IC50 was 21.9 µM (inactive).

Turning to `COCCCN(Cc1ccco1)C(=O)Cn1ncc2c([nH]c3ccccc32)c1=O`, the IC50 was 41.4 µM (inactive).

For the compound `CC(=O)Nc1cccc(-c2cc(NC(C)=O)c3ncc(-c4ccccc4)n3c2)c1`, the IC50 was 30.9 µM (inactive).

Turning to `Fc1ccc(-n2cc(-c3ccccc3)c3c(N4CCOCC4)ncnc32)cc1`, the half-maximal inhibitory concentration (IC50) is 8.35 µM.

Take `CCc1nc2ccc(C(=O)Nc3cc(-c4ccccc4)ccc3OC)cn2c1N(C)Cc1nccs1`: the IC50 is > 79 µM (inactive).

Take `CCCn1nc(C(=O)Nc2nc(-c3ccccn3)cs2)c2ccccc2c1=O`: the IC50 is > 79 µM (inactive).

With `O=C(c1ccc(-c2nc3ccccc3s2)o1)N1CCN(c2ccccc2O)CC1`, the IC50 is > 79 µM (inactive).

On to `COc1cccc(CN(C)C(=O)C(Cc2ccccc2)NC(=O)c2ccccc2)c1OC` (centres undefined), for which the IC50 is > 79 µM (inactive).

For `COC(=O)c1cc2c(-c3ccccc3)cc3ccccn3c-2c1C(=O)OC`, the IC50 was > 79 µM (inactive).

Consider `CC(OC(=O)c1cc(-c2cccnc2)nc2ccccc12)C(=O)Nc1ccc2ccccc2c1` (centres undefined), for which the IC50 was > 79 µM (inactive).

For the compound `CN(C(=O)c1sc2nc(N3CCOCC3)c3c(c2c1N)CCCC3)c1ccccc1`, the IC50 was > 79 µM (inactive).

In the case of `COc1ccc2c(c1OC)C(=O)N1c3ccccc3C(=O)N(c3ccccc3)C21` (centres undefined), the IC50 was 11 µM.

Take `CC(C)=NNc1cnnc2ccc([N+](=O)[O-])cc12`: the IC50 was > 79 µM (inactive).

Consider `COc1cc(NC(=O)c2cc3ccccc3cc2OC)ccc1NC(=O)c1cccs1`, for which the IC50 is 5.85 µM.

As to `COC(=O)c1[nH]c2ccccc2c1NC(=O)CNC1CCCCC1`, the IC50 is 41 µM (inactive).

Regarding `COc1nc(N/N=C/c2cc3c(cc2Br)OCO3)nc(N2CCOCC2)n1`, the IC50 was > 79 µM (inactive).

Take `COCCN1Cc2cccc(C(=O)Nc3cccc(-c4nc5ccccc5[nH]4)c3)c2C1=O`: the IC50 was 8.5 µM.

As to `CCCNC(=O)c1ccc(N2CCC3(CC2)CC(c2ccccc2)=NO3)c(NC(=O)c2ccco2)c1`, the IC50 was 10.3 µM.

Consider `COc1ccc(-c2cc(C(=O)N(C)Cc3ccc(OC)c(OC)c3OC)c3ccccc3n2)cc1OC`, for which the IC50 was 32.1 µM (inactive).

Regarding `CC(C)(C)NC(=O)c1cc(NC(=O)c2cccs2)cc(NC(=O)c2cccs2)c1`, the IC50 was > 79 µM (inactive).

Regarding `O=C(Nc1cc(S(=O)(=O)N2CCOCC2)ccc1N1CCCCC1)c1cc(-c2ccccn2)nc2ccccc12`, the IC50 is 21 µM (inactive).

`COc1cccc(-c2cnc3c(NC=O)cc(-c4cc(C)c(O)c(C)c4)cn23)c1`: the IC50 was > 79 µM (inactive).

On to `O=C(Nc1cccc(NC(=O)c2ccc([N+](=O)[O-])o2)c1)c1ccco1`, for which the IC50 was > 79 µM (inactive).

Take `Cc1ccc(-c2csc(N3CCC[C@@H]3C(=O)NCCn3c(-c4ccncc4)nc4ccccc43)n2)cc1`: the IC50 was > 79 µM (inactive).

In the case of `COc1ccc(-c2csc(NC(=O)CCCc3nc4ccccc4c(=O)[nH]3)n2)cc1OC`, the IC50 was > 79 µM (inactive).

With `COc1ccc(-c2ccc3c(c2)S(=O)(=O)c2cccc(C(=O)NC[C@@H]4CCCO4)c2C3=O)cc1OC`, the IC50 is > 79 µM (inactive).

As to `O=C1OCCN1C(=O)[C@H]1[C@H](c2ccc([N+](=O)[O-])cc2)C(c2ccc(F)cc2)=NN1c1ccc(Br)cc1`, the IC50 was > 79 µM (inactive).

With `COc1ccc(-n2cc(-c3ccccc3)c3c(N4CCOCC4)ncnc32)cc1`, the IC50 is 4.4 µM.

For `COc1cc(OC)cc(-c2cc3nc(C)c(CCC(=O)Nc4nc(C)cs4)c(C)n3n2)c1`, the IC50 is > 79 µM (inactive).

Take `COc1ccc(-c2cc(-c3nnc(COC(=O)C4CC4C)o3)c3ccccc3n2)cc1OC` (centres undefined): the IC50 is > 79 µM (inactive).

Turning to `COc1cc(/C=N/NC(=O)c2ccccc2)ccc1OS(=O)(=O)c1ccccc1`, the IC50 was > 79 µM (inactive).

Take `Brc1cc2c(cc1/C=N/Nc1nc(N3CCCC3)nc(N3CCOCC3)n1)OCO2`: the IC50 is > 79 µM (inactive).

For the compound `COc1cc(-c2cc(C(=O)OCC(=O)NC3CC3)c3ccccc3n2)cc(OC)c1OC`, the IC50 was 47.4 µM (inactive).

Turning to `Cc1nn(-c2ccccc2)c(N2CCCC2)c1/C=N/NC(=O)c1cc(-c2ccccn2)nc2ccccc12`, the IC50 is 19.5 µM.

On to `Cc1[nH]c2ccccc2c1/C=N/NC(=O)c1cc(-c2ccccc2)n[nH]1`, for which the IC50 is 22.8 µM (inactive).

On to `COc1cc(NC(=O)c2cc3nc(-c4ccccc4)cc(-c4ccccc4)n3n2)cc(OC)c1OC`, for which the IC50 was 23.9 µM (inactive).

As for `COc1ccc(COc2cc(-c3cccc(OC)c3)nc3ccc(NC(=O)c4cccnc4)cc23)cc1`, the IC50 is 5.96 µM.

Turning to `COc1cc(Nc2nc3ccccc3n3nnnc23)cc(OC)c1OC`, the IC50 was > 79 µM (inactive).

Turning to `O=C(NCC(=O)N(Cc1cccs1)C(C(=O)NC1CCCCC1)c1ccco1)c1ccco1` (centres undefined), the IC50 was > 79 µM (inactive).

For `O=C(CN(c1ccc2c(c1)OCCO2)S(=O)(=O)c1ccccc1)Nc1ccc2c(c1)OCO2`, the IC50 was > 79 µM (inactive).

As for `C[C@@H]1CN([C@@H](C)CO)C(=O)c2cc(NC(=O)Nc3ccccc3)ccc2O[C@H]1CN(C)C(=O)Nc1cccc2ccccc12`, the IC50 was > 79 µM (inactive).

Turning to `CNC(=O)COC(=O)/C=C/c1cn(-c2ccccc2)nc1-c1ccc(C)o1`, the IC50 is > 79 µM (inactive).

As to `C[C@H](NC(=O)c1nc[nH]c1C(=O)NCC(=O)OCc1ccccc1)c1ccccc1`, the IC50 is > 79 µM (inactive).

For `NC(=O)COc1ccc2oc(=O)cc(-c3cc4ccccc4o3)c2c1`, the IC50 was > 79 µM (inactive).

As for `Cc1ccc(NC(=O)c2nc[nH]c2C(=O)NCCCNC(=O)c2[nH]cnc2C(=O)Nc2ccc(C)cc2)cc1`, the IC50 was > 79 µM (inactive).

With `Cc1ccccc1N(C(=O)c1snc(C(N)=O)c1N)C(C(=O)NCc1ccccc1)c1ccc(O)cc1` (centres undefined), the IC50 is > 79 µM (inactive).

For `COc1cc(C(=O)Nc2nc(-c3cccs3)cs2)cc(OC)c1OC`, the IC50 is 16.9 µM.
